The values below come from PMC3419725, “A Small Molecule Agonist of EphA2 Receptor Tyrosine Kinase Inhibits Tumor Cell Migration In Vitro and Prostate Cancer Metastasis In Vivo” (PLoS ONE, 2012).

As usually defined, the Kd is the equilibrium constant for the complex coming apart. A lower Kd goes with higher affinity.

The assay concerns the target T1, EphA2 (Homo sapiens, UniProt P29317).
T1 construct: Methods: biotinylated extracellular domain (ECD)
As to the kind of experiment: SPR; also receptor activation in cells. The assay is classed as binding.

T1 sequence (P29317 28-206 limits assumed): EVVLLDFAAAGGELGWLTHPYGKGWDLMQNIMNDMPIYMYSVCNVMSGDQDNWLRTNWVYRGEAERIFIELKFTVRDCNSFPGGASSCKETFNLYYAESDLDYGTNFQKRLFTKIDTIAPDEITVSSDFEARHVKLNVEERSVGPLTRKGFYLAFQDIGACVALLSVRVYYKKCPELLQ

`COc1cc2nc(N3CCN(C(=O)C4COc5ccccc5O4)CC3)nc(N)c2cc1OC` (stereo not shown) [compound 11, doxazosin] came in with an equilibrium dissociation constant (Kd) of 47.6 µM. That is a double-digit micromolar value.
